Experiments:
human tumor cell lines = test: Tumor cell line proliferation assay; assay type: cell-based; conditions: chart (FIG. 13)
Method: The ability of one or more subject compounds to inhibit tumor cell line proliferation is determined according to standard procedures known in the art. For instance, an in vitro cellular proliferation assay can be performed to measure the metabolic activity of live cells. The assay is performed in a 96 well microtiter plate using Alamar Blue reduction. Human tumor cell lines are obtained from ATCC (e.g., MCF7, U-87 MG, MDA-MB-468, PC-3), grown to confluency in T75 flasks, trypsinized with 0.25% trypsin, washed one time with Tumor Cell Media (DMEM+10% FBS), and plated in 90 ul at 5,000 cells/well in Tumor Cell Media. A compound disclosed herein is diluted in Tumor Cell Media and added in a 10 ul volume. Plates are incubated for 72 hours at 37 C and 5% CO2. A volume of 10 uL of Alamar Blue reagent is added to each well and plates are incubated for 3 hours at 37 C and 5% CO2. Alamar Blue fluoresce is read at 560Ex/590Em, and IC50 values are calculated using GraphPad Prism 5.

breast cancer model = test: Preclinical breast cancer model (tumor weight / volume); assay type: in vivo
[1] = system: Akt, S6, 4EBP phosphorylation; test: Western blot of PI3K pathway phosphorylation (Akt, S6, 4EBP); assay type: cell-based
B cell function = B cell function in vivo (TNP-Ficoll immunization, antibody production); parameters: species or system mouse; conditions: mice immunized with TNP-Ficoll; 70 mg/kg GDC0941; 30, 60 or 120 mg/kg Compound A for 7 days (FIG. 8)
[2] = system: pAKT(S473) in MDA-MB-361 cells; test: Western blot of Akt phosphorylation (pAKT) in MDA-MB-361 cells; assay type: cell-based, human; conditions: about 2 hours treatment, read-out: inhibition of pAKT, IC50
Method: (§1) Cells comprising one or more mutations in PI3Kα, including but not limited to breast cancer cells (e.g., MDA-MB-361, T47D, SKOV-3), and cells comprising one or more mutations in PTEN including but not limited to prostate cancer cells (e.g., PC3), are typically grown in cell growth media such as DMEM supplemented with fetal bovine serum and/or antibiotics, and grown to confluency. Cells are then treated with various concentrations of test compound for about 2 hours and subsequently lysed in cell lysis buffer. Lysates are subjected to SDS-PAGE followed by Western blot analysis to detect downstream signaling markers, including but not limited to pAKT(S473), pAKT(T308), pS6, and p4E-BP1.
MDA-MB-361(PIK3CA-E545K), MDA-MB-453 (PIK3CA-H1047R), and SK-Br3 (Her2) cells were treated with various concentrations of Compound A for 2 h and subsequently lysed. Lysates were subjected to SDS-PAGE followed by Western blot analysis as described above to detect downstream pathway markers.

[3] = system: pAKT(S473), pAKT(T308) in PC3 cells; test: Western blot of Akt phosphorylation (pAKT) in PC3 cells; assay type: cell-based; conditions: PC3 cells, about 2 hours treatment, read-out: inhibition of pAKT, IC50
Method: as §1

MDA-MB-361 cells = test: Cell proliferation (CellTiter-Glo) in MDA-MB-361 cells; assay type: cell-based, human; conditions: read-out: inhibition of cell proliferation, IC50
Method: as §1
Cells were seeded at 5000-10,000 per well in a 96 well flat bottom plate 90 ul growth media. Pre-diluted compound (at 10 times the final concentration) or DMSO (control) was added. The compounds were prepared such that the dose range extended from a final concentration of 30 μM to 14 nM via 3-fold serial dilutions (8 point curve). The final DMSO concentration was 0.3%. […] After 72 hours, proliferation was measured using CellTiter-Glo Luminescent reagent (Promega, PR-G7573). […] Contents were mixed for 30 minutes on an orbital shaker to lyse cells Luminescence was read on a PerkinElmer EnVision plate reader. […] Inhibition % was calculated as: 1−(cells+inhibitor)−background signal)/(cells+DMSO)−background signal)[…].

[4] = system: MDA-MB-361 (PI3Kα/HER2 carcinoma) tumors; test: In vivo efficacy in MDA-MB-361 xenograft mouse model of breast cancer; parameters: species or system nude mice; conditions: 70 mg/kg Pan-PI3K inhibitor, 60 mg/kg compound A, FIG. 9 left panel
Method: Blood glucose was monitored periodically following administration of treatment.
Treatment of tumors (MDA-MB-361) with compounds was discontinued on Day 30. Tumors were measured every 2-5 days.

[5] = system: 786-O human kidney carcinoma tumors; test: In vivo efficacy in 786-O xenograft model; parameters: species or system nude mice; conditions: oral, FIG. 6
PI3K α = PI3K α (Homo sapiens, UniProt P42336); test: PI 3-Kinase (human) HTRF assay, PI3K α; conditions: chart (FIG. 6C)
Chain of PI3K α (P42336 whole entry): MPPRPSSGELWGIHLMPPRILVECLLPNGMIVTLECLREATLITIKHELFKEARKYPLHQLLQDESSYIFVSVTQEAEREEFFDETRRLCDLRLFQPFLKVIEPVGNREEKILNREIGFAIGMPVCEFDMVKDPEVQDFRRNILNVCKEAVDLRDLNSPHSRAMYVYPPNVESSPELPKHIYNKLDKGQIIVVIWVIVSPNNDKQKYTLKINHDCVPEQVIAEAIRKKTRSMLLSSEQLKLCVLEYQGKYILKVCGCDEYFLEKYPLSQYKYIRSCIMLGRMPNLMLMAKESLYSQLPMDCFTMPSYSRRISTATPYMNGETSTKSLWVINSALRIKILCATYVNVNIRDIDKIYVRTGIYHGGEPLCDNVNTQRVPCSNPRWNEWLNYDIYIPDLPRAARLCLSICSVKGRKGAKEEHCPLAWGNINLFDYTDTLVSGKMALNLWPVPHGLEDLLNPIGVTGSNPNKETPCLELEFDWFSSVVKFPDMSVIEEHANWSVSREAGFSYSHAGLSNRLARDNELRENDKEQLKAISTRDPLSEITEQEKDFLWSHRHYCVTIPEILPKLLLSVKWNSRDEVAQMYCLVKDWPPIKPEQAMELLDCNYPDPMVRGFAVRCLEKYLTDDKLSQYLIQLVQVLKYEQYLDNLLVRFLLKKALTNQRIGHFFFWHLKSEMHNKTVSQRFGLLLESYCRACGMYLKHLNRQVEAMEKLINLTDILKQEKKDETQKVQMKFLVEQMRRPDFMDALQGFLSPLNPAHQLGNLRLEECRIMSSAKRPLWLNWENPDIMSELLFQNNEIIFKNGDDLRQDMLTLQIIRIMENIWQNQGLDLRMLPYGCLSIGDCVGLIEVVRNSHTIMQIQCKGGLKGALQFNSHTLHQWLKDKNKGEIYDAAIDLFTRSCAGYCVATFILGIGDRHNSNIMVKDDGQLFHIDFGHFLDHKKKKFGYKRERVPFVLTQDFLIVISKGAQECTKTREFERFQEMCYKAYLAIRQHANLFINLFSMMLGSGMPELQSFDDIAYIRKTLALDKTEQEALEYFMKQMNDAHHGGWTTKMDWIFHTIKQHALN
Chain of PI3K α (P27986 whole entry partner): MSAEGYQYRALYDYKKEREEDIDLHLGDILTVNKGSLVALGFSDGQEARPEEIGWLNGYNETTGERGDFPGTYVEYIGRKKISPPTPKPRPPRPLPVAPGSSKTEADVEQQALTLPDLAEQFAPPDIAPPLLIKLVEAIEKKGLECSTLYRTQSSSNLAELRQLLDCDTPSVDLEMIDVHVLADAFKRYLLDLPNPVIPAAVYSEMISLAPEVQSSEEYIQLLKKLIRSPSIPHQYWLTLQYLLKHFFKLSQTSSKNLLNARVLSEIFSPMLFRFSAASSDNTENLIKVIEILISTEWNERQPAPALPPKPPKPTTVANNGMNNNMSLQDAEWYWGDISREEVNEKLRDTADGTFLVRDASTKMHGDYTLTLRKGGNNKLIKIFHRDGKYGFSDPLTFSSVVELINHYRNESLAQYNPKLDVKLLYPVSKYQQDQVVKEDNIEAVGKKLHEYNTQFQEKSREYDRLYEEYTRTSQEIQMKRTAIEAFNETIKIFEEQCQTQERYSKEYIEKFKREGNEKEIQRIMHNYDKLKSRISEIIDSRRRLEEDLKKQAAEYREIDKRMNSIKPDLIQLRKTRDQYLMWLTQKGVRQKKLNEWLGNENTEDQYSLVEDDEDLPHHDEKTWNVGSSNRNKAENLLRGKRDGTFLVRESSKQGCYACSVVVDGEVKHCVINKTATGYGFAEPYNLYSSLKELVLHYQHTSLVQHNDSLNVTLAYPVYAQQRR

IC50 [2]: ~1000 nM | IC50 [3]: ~10000 nM | IC50 (MDA-MB-361 cells): ~1900 nM | specificity in inhibiting PI3K α over mTOR and other PI3K isoforms (PI3K α): specificity
SMILES: Nc1nc2cc(-c3ccc4ncc(C(=O)N5CCOCC5)n4c3)ccc2o1 [Compound A]
proliferation of tumor cells harboring PI3K α mutations (human tumor cell lines): preferentially inhibits | tumor weight of a breast cancer model (breast cancer model; 70 mg/kg Pan-PI3K inhibitor, 60 mg/kg compound A (FIG. 9 left)): reduction in tumor weight | tumor weight in a preclinical breast cancer model (breast cancer model; combined treatment with Compound A and Compound B (FIG. 2)): synergistic effect | reducing tumor volume of a preclinical breast cancer model (breast cancer model; combined treatment with Compound A and rapamycin (FIG. 4)): synergistic effect | inhibition of the PI3K pathway in cell lines with elevated PI3K α activity ([1]; MDA-MB-361, MDA-MB-453, SKBr3 breast cancer cells, western blot (FIG. 11)): inhibition | inhibition of Akt, S6, and 4EBP phosphorylation ([1]; PTEN mutant cells, western blot (FIG. 6B)): not | Akt phosphorylation at serine 473 ([1]; PTEN-mutant cell line (FIG. 12B)): reduced inhibition | downregulating Akt and S6 phosphorylation ([1]; combined treatment with Compound A and Compound B, western blot (FIG. 3)): synergistic effect | Akt phosphorylation at serine 473 ([1]; western blot (FIG. 12A)): inhibition | B cell function in vivo (antibody production) (B cell function): not | tumor weight [4]: reduction in tumor weight | inhibition of kinase activity (downstream markers) and tumor growth [5]: decreased activity by comparison to that seen in the MDA derived tumors
